Measured values as given in article PMC3905599 (Chembiochem : a European journal of chemical biology, 2013).

Experiments:
[1] = molecular target: P-glycoprotein (Homo sapiens, UniProt P08183); assay type: binding; conditions: for inhibition at 20 μM / inhibition at 10 μM: human, pH 7.5
[2] = molecular target: human P-gp (Homo sapiens, UniProt P08183); assay: Calcein-AM efflux; assay type: cell-based
[3] = test system: P-gp; conditions: cited from earlier work
[4] = ongoing Phase III clinical trials; cited from earlier work

Sequence of P-glycoprotein (P08183 whole entry): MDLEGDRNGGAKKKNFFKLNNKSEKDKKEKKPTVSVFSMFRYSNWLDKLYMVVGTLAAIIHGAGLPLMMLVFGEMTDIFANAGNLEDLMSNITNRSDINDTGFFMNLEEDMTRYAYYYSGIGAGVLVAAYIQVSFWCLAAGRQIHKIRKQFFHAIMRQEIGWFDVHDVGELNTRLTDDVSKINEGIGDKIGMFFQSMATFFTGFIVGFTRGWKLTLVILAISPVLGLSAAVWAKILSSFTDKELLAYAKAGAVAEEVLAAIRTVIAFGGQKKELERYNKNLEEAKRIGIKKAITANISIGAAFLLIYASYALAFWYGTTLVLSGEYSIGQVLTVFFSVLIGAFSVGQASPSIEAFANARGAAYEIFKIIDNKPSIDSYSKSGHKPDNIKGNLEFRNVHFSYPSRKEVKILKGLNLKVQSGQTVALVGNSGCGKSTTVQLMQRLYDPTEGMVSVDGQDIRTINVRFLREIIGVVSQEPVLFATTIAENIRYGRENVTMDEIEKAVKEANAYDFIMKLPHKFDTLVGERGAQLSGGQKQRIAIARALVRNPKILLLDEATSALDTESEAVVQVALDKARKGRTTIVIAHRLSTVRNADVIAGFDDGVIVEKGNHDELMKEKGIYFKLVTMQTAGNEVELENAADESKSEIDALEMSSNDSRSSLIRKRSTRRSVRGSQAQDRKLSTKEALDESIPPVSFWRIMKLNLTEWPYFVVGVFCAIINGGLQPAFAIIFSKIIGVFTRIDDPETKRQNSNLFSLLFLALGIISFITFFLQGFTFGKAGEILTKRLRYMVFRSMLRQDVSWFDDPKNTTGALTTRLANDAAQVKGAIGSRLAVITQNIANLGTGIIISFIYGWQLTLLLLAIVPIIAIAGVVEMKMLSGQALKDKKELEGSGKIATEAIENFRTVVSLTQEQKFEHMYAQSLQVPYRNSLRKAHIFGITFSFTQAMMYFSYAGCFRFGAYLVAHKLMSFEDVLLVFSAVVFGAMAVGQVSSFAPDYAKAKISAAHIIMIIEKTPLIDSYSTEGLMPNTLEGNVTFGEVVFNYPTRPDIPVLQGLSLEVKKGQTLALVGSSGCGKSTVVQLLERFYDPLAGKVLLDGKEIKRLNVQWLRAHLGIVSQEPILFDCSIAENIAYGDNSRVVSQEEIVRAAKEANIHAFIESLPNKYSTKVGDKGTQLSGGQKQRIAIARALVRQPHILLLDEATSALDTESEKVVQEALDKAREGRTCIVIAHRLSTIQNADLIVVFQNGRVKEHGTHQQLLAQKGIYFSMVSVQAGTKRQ
Sequence of human P-gp (P08183 whole entry): as above

Row | SMILES | inhibition at 20 μM [1] [%] | inhibition at 10 μM [1] [%] | further results
1 | CCOC(=O)c1csc([C@@H](NC(=O)OC(C)(C)C)C(C)C)n1 [Compound 5, (S)-2-(1-tert-Butoxycarbonylamino-2-methylpropyl)thiazole-4-carboxylic acid ethyl ester] | 20 | – | –
2 | CC(C)[C@H](NC(=O)OC(C)(C)C)c1nc(C(=O)O)cs1 [Compound 6, (S)-2-(1-tert-Butoxycarbonylamino-2-methylpropyl)thiazole-4-carboxylic acid] | < 10 | – | –
3 | CCOC(=O)c1csc([C@@H](N)C(C)C)n1 [Compound 7, (S)-2-(1-Amino-2-methylpropyl)thiazole-4-carboxylic acid ethyl ester] | < 10 | – | –
4 | CC(C)[C@H](N)c1nc(C(=O)O)cs1 [Compound 8, (S)-2-(1-Amino-2-methylpropyl)thiazole-4-carboxylic acid] | < 10 | – | –
5 | CCOC(=O)c1csc([C@@H](NC(=O)c2csc([C@@H](NC(=O)OC(C)(C)C)C(C)C)n2)C(C)C)n1 [Compound 9, (S)-2-(1-{[2-(1-tert-Butoxycarbonylamino-2-methylpropyl)thiazole-4-carbonyl]amino}-(S)-2-methylpropyl)thiazole-4-carboxylic acid ethyl ester] | 87 | – | IC50 [2]: 20 µM
6 | CC(C)[C@H](NC(=O)OC(C)(C)C)c1nc(C(=O)N[C@H](c2nc(C(=O)O)cs2)C(C)C)cs1 [Compound 10, (S)-2-(1-{[2-(1-tert-Butoxycarbonylamino-2-methylpropyl)thiazole-4-carbonyl]amino}-(S)-2-methylpropyl)thiazole-4-carboxylic acid] | < 10 | – | –
7 | CCOC(=O)c1csc([C@@H](NC(=O)c2csc([C@@H](N)C(C)C)n2)C(C)C)n1 [Compound 11, (S)-2-(1-{[2-(1-Amino-2-methylpropyl)thiazole-4-carbonyl]amino}-(S)-2-methylpropyl)thiazole-4-carboxylic acid ethyl ester] | 87 | – | –
8 | CC(C)[C@H](N)c1nc(C(=O)N[C@H](c2nc(C(=O)O)cs2)C(C)C)cs1 [Compound 12, (S)-2-(1-{[2-(1-Amino-2-methylpropyl)thiazole-4-carbonyl]amino}-(S)-2-methylpropyl)thiazole-4-carboxylic acid] | 23 | – | –
9 | CCOC(=O)c1csc([C@@H](NC(=O)c2csc([C@@H](NC(=O)c3csc([C@@H](NC(=O)OC(C)(C)C)C(C)C)n3)C(C)C)n2)C(C)C)n1 [Compound 13, (S)-2-(1-{[2-(1-{[2-(1-tert-Butoxycarbonylamino-2-methylpropyl)thiazole-4-carbonyl]amino}-(S)-2-methylpropyl)thiazole-4-carbonyl]amino}-(S)-2-methylpropyl) thiazole-4-carboxylic acid ethyl ester] | – | 91 | –
10 | CC(C)[C@H](NC(=O)OC(C)(C)C)c1nc(C(=O)N[C@H](c2nc(C(=O)N[C@H](c3nc(C(=O)O)cs3)C(C)C)cs2)C(C)C)cs1 [Compound 14, (S)-2-(1-{[2-(1-{[2-(1-tert-Butoxycarbonylamino-2-methylpropyl)thiazole-4-carbonyl]amino}-(S)-2-methylpropyl)thiazole-4-carbonyl]amino}-(S)-2-methylpropyl)thiazole-4-carboxylic acid] | – | 60 | –
11 | CCOC(=O)c1csc([C@@H](NC(=O)c2csc([C@@H](NC(=O)c3csc([C@@H](N)C(C)C)n3)C(C)C)n2)C(C)C)n1 [Compound 15, (S)-2-(1-{[2-(1-{[2-(1-Amino-2-methylpropyl)thiazole-4-carbonyl]amino}-(S)-2-methylpropyl)thiazole-4-carbonyl]amino}-(S)-2-methylpropyl)thiazole-4-carboxylic acid ethyl ester] | – | 91 | –
12 | CCOC(=O)c1csc([C@@H](NC(=O)c2csc([C@@H](NC(=O)c3csc([C@@H](NC(=O)c4csc([C@@H](NC(=O)OC(C)(C)C)C(C)C)n4)C(C)C)n3)C(C)C)n2)C(C)C)n1 [Compound 18, (S)-2-(1-{[2-(1-{[2-(1-{[2-(1-tert-Butoxycarbonylamino-2-methylpropyl)thiazole-4-carbonyl]amino}-(S)-2-methylpropyl)thiazole-4-carbonyl]amino}-(S)-2-methylpropyl)thiazole-4-carbonyl]amino}-(S)-2-methylpropyl)thiazole-4-carboxylic acid ethyl ester] | – | 99 | Decrease of cell based inhibitory activity as compared to homolog 13 ([2]; 10 μM, transport assays): 1.6 fold
13 | CC(C)[C@@H]1NC(=O)c2csc(n2)[C@H](C(C)C)NC(=O)c2csc(n2)[C@H](C(C)C)NC(=O)c2csc(n2)[C@H](C(C)C)NC(=O)c2csc1n2 [Compound 20, Cyclic Tetramer] | – | – | [125I]-IAAP % Inhibition ([1]; tested conc. 10 μM, 4-6 nM [125I]-IAAP, High-Five insect cell membranes): 95%
14 | COc1ccc(CNC(=O)c2csc([C@@H](NC(=O)c3csc([C@@H](NC(=O)OC(C)(C)C)C(C)C)n3)C(C)C)n2)c(OC)c1 [Compound 23, [1-(4-{1-[4-(2,4-Dimethoxybenzylcarbamoyl)thiazol-2-yl]-(S)-2-methylpropylcarbamoyl}thiazol-2-yl)-(S)-2-methylpropyl]carbamic acid tert-butyl ester] | – | 95 | –
15 | CC(C)[C@@H]1NC(=O)c2c[se]c(n2)[C@H](C(C)C)NC(=O)c2c[se]c(n2)[C@H](C(C)C)NC(=O)c2c[se]c1n2 [QZ59Se-SSS] | – | – | Potency relative to corresponding QZ59Se-RRR isomer [3]: four-fold potent
16 | C/C=C/C[C@@H](C)C(=O)[C@H]1C(=O)N[C@@H](C(C)C)C(=O)N(C)CC(=O)N(C)[C@@H](CC(C)C)C(=O)N[C@@H](C(C)C)C(=O)N(C)[C@@H](CC(C)C)C(=O)N[C@@H](C)C(=O)N[C@H](C)C(=O)N(C)[C@@H](CC(C)C)C(=O)N(C)[C@@H](CC(C)C)C(=O)N(C)[C@@H](C(C)C)C(=O)N1C [valspodar] | – | – | Oral bioavailability [4]: very restricted oral bioavailability
